Measured values as given in ChEMBL document CHEMBL2021763, “Solution NMR analysis of the binding mechanism of DIVS6 model peptides of voltage-gated sodium channels and the lipid soluble alkaloid veratridine” (Bioorg Med Chem, 2012).
pKd: −log10 of the molar value.

Experiments:
[1] = Toxicity in ip dosed mouse; assay type: organism-based; conditions: in vivo
[2] = Binding affinity to transmembrane model peptide-1 of domain 4 segment 6 of rat skeletal muscle Nav1.4 by Marquardt and Levenberg algorithm analysis
[3] = Binding affinity to transmembrane model peptide-2 of domain 4 segment 6 of rat skeletal muscle Nav1.4 by Marquardt and Levenberg algorithm analysis

Row | SMILES | LD50 [1] [mg/kg] | pKd [2] | pKd [3]
1 | C[C@H]1CC[C@@H]2N(C1)C[C@@H]1[C@](O)([C@@H](O)C[C@@]3(O)[C@@H]4CC[C@@H]5[C@]6(O)O[C@@]4(C[C@@]13O)[C@@]5(C)CC[C@@H]6O)[C@]2(C)O [VERACEVINE] | > 100 | 3.05 | –
2 | COc1ccc(C(=O)O[C@H]2CC[C@@]3(C)[C@@H]4CC[C@H]5[C@]6(O)C[C@H](O)[C@@]7(O)[C@@H](CN8C[C@@H](C)CC[C@H]8[C@@]7(C)O)[C@]6(O)C[C@@]53O[C@]24O)cc1OC [VERATRIDINE] | 9 | 2.85 | 3.31
